Target: human PSMA (Homo sapiens (Human), UniProt Q04609)
Experiment: Enzymatic assay for in vitro evaluation of PSMA inhibitors (fluorescent assay of PSMA activity, NAAG substrate, OPA detection of glutamate)
Type: biochemical
Conditions: for PSMA Blkg % (10 μM): compound at 10 μM
Protocol: Enzymatic Assay for In Vitro Evaluation of PSMA Inhibitors
The inhibitory activity of all compounds was determined using a fluorescent assay of human PSMA activity. The enzyme used in the assay was purchased from R&D Systems and stored at −80° C. The PSMA activity was assayed in a two-step process. In the first step, aliquots of enzyme (0.2 μg/mL) were incubated for 1 h at 37° C. in 50 mM HEPES, 0.1 M NaCl, pH 7.5, in the presence of 20 μM NAAG and the given inhibitor, in a volume of 250 μL, to allow for the accumulation of glutamate produced in the PSMA reaction. In the second step, the amount of accumulated glutamate was measured using the OPA reaction, and the fluorescence was read with a SpectraMax fluorescent plate reader using excitation at 330 nm and emission at 450 nm. The final Ki values for each inhibitor were calculated from the respective IC50 values using the Cheng and Prusoff equation.

Chain of human PSMA (Q04609 whole entry): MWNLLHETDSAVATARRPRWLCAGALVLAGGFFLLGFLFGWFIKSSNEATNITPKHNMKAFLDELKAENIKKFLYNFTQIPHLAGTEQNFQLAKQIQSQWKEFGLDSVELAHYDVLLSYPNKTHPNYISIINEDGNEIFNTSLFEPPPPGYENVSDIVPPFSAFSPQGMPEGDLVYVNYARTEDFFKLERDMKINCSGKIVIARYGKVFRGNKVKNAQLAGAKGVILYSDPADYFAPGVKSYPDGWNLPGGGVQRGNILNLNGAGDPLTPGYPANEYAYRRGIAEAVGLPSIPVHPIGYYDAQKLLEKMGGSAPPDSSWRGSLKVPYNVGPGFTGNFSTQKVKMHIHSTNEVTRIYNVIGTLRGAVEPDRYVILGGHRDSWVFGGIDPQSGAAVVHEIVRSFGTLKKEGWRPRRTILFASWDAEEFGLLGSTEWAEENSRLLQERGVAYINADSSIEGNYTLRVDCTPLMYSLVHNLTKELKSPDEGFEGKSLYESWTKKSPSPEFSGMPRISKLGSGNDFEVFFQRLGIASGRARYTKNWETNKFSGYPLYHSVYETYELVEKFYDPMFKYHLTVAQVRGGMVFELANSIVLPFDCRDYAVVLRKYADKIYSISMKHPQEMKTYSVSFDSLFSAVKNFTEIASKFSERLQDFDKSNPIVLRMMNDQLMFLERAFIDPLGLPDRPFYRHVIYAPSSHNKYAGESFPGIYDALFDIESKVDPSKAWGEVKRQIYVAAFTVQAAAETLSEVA

Row | Compound | PSMA Blkg % (10 μM) | Ki | PSMA Blkg % (1.0 μM)
1 | 2-(4-(2-(((Benzyloxy)carbonyl)amino)-3-methoxy-3-oxopropyl)-1H-1,2,3-triazol-1-yl)pentanedioic Acid [P124] | 10% | – | –
2 | O=C(O)CC[C@H](NC(=O)N[C@@H](CCCCNC(=O)N1CCN(C(=O)c2ccc(-n3cc(CCCF)nn3)cc2)CC1)C(=O)O)C(=O)O (stereo in doubt) [P249, (S)-2-(3-((S)-1-Carboxy-5-(4-(4-(4-(3-fluoropropyl)-1H-1,2,3-triazol-1-yl)benzoyl)-piperizine-1-carboxamido)pentyl)ureido)pentanedioic Acid] | – | 9.4 nM | –
3 | O=C(O)CC[C@H](NC(=O)N[C@@H](CCCCNc1cc(OCC(COc2ccc([N+](=O)[O-])c(NCCCC[C@H](NC(=O)N[C@@H](CCC(=O)O)C(=O)O)C(=O)O)c2)n2cc(CCCF)nn2)ccc1[N+](=O)[O-])C(=O)O)C(=O)O (stereo in doubt) [P266, (2S)-2-(3-((1)-1-Carboxy-5-((5-(3-(3-(((S)-5-carboxy-5-(3-((S)-1,3-dicarboxypropyl)ureido)pentyl)amino)-4-nitrophenoxy)-2-(4-(3-fluoropropyl)-1H-1,2,3-triazol-1-yl)propoxy)-2-nitrophenyl)amino)pentyl)ureido)pentanedioic Acid] | – | 0.3 nM | –
4 | O=C(O)CCC(NC(=O)N[C@@H](CCCCNc1nc(NCCN(CCNc2ccc([N+](=O)[O-])c(NCCCCC(NC(=O)N[C@@H](CCC(=O)O)C(=O)O)C(=O)O)n2)CCNc2ccc([N+](=O)[O-])c(NCCCCC(NC(=O)N[C@@H](CCC(=O)O)C(=O)O)C(=O)O)n2)ccc1[N+](=O)[O-])C(=O)O)C(=O)O (stereo in doubt) [P270, (2S,2′S,2″S)-2,2′,2″-(((((1S,1′S,1″S)-((6,6′,6″-((Nitrilotris(ethane-2,1-diyl))tris(azanediyl))tris(3-nitropyridine-6,2-diyl))tris(azanediyl))tris(1-carboxypentane-5,1-diyl))tris(azanediyl))tris(carbonyl))tris(azanediyl))tripentanedioic Acid] | – | 0.2 nM | 71%
5 | O=C(O)CC[C@H](NC(=O)NC(Cc1ccc(NC(=O)N2CCN(C(=O)c3cc(NC(=O)Cn4cc(CCCF)nn4)cc(C(=O)N4CCN(C(=O)Nc5ccc(CC(NC(=O)N[C@@H](CCC(=O)O)C(=O)O)C(=O)O)cc5)CC4)c3)CC2)cc1)C(=O)O)C(=O)O (stereo in doubt) [P274, (2S,2′S)-2,2′-(((((1S,1′S)-(((4,4′-(5-(2-(4-(3-Fluoropropyl)-1H-1,2,3-triazol-1-yl)acetamido)isophthaloyl)bis(piperazine-1,1′-carbonyl))bis(azanediyl))bis(4,1-phenylene))bis(1-carboxyethane-2,1-diyl))bis(azanediyl))bis(carbonyl))bis(azanediyl))dipentanedioic Acid] | – | 13.1 nM | –
6 | O=C(O)CC[C@H](NC(=O)NC(Cc1ccc(NC(=O)N2CCN(C(=O)c3cc(C(=O)N4CCN(C(=O)Nc5ccc(CC(NC(=O)N[C@@H](CCC(=O)O)C(=O)O)C(=O)O)cc5)CC4)cc(-n4cc(CCCF)nn4)c3)CC2)cc1)C(=O)O)C(=O)O (stereo in doubt) [P275, (2S,2′S)-2,2′-(((((1S,1′S)-(((4,4′-(5-(4-(3-Fluoropropyl)-1H-1,2,3-triazol-1-yl)isophthaloyl)bis(piperazine-1,1′-carbonyl))bis(azanediyl))bis(4,1-phenylene))bis(1-carboxyethane-2,1-diyl))bis(azanediyl))bis(carbonyl))bis(azanediyl))dipentanedioic Acid] | – | 6.6 nM | –
7 | O=C(O)CCC(NC(=O)N[C@@H](CCCCNc1cc(OCC(COc2ccc([N+](=O)[O-])c(NCCCCC(NC(=O)N[C@@H](CCC(=O)O)C(=O)O)C(=O)O)c2)OCc2cn(CCF)nn2)ccc1[N+](=O)[O-])C(=O)O)C(=O)O (stereo in doubt) [P277, (2S)-2-(3-((1S)-1-Carboxy-5-((5-(3-(3-(((S)-5-carboxy-5-(3-((S)-1,3-dicarboxypropyl)ureido)pentyl)amino)-4-nitrophenoxy)-2-((1-(2-fluoroethyl)-1H-1,2,3-triazol-4-yl)methoxy)propoxy)-2-nitrophenyl)amino)pentyl)ureido)pentanedioic Acid] | – | 0.4 nM | –
8 | O=C(O)CCC(NC(=O)NC(CCCCNC(=O)CC(CC(=O)NCCCCC(NC(=O)N[C@@H](CCC(=O)O)C(=O)O)C(=O)O)NC(=O)c1ccc(-n2cc(CCCF)nn2)cc1)C(=O)O)C(=O)O (stereo in doubt) [P278, (3S,7S,23S,27S)-15-(4-(4-(3-Fluoropropyl)-1H-1,2,3-triazol-1-yl)benzamido)-5,13,17,25-tetraoxo-4,6,12,18,24,26-hexaazanonacosane-1,3,7,23,27,29-hexacarboxylic Acid] | – | 0.2 nM | –
9 | O=C(O)CC[C@H](NC(=O)N[C@@H](CCCCNC(=O)N1CCN(C(=O)CCC(CCC(=O)N2CCN(C(=O)NCCCC[C@H](NC(=O)N[C@@H](CCC(=O)O)C(=O)O)C(=O)O)CC2)NC(=O)c2ccc(-n3cc(CCCF)nn3)cc2)CC1)C(=O)O)C(=O)O (stereo in doubt) [P281, (2S,2′S)-2,2′-(((((1S,1′S)-((4,4′-(4-(4-(4-(3-Fluoropropyl)-1H-1,2,3-triazol-1-yl)benzamido)heptanedioyl)bis(piperazine-1,1′-carbonyl))bis(azanediyl))bis(1-carboxypentane-5,1diyl))-bis(azanediyl))-bis(carbonyl))-bis(azanediyl))-dipentanedioic Acid] | – | 1.3 nM | –
10 | O=C(O)CCC(NC(=O)NC(CC1CCN(C(=O)CCC(CCC(=O)N2CCC(C[C@H](NC(=O)NC(CCC(=O)O)C(=O)O)C(=O)O)CC2)NC(=O)c2ccc(-n3cc(CCCF)nn3)cc2)CC1)C(=O)O)C(=O)O (stereo in doubt) [P292, (2S)-2-(3-((1S)-1-Carboxy-2-(1-(7-(4-((S)-2-carboxy-2-(3-((S)-1,3-dicarboxypropyl)-ureido)-ethyl)-piperidin-1-yl)-4-(4-(4-(3-fluoropropyl)-1H-1,2,3-triazol-1-yl)-benzamido)7-oxoheptanoyl)-piperidin-4-yl)ethyl)ureido)pentanedioic Acid] | – | 0.7 nM | 96%
11 | O=C(O)CC[C@H](NC(=O)N[C@@H](CSCc1ccc(F)cc1)C(=O)O)C(=O)O [P001] | 97% | 50 nM | –
12 | O=C(O)CC[C@H](NC(=O)N[C@@H](CCCCNC(=O)c1ccc(F)nc1)C(=O)O)C(=O)O [P002, (S)-2-(3-((S)-1-Carboxy-5-(6-fluoronicotinamido)pentyl)ureido)pentanedioic Acid] | 92% | – | –
13 | O=C(O)CC[C@H](NC(=O)N[C@@H](CCCCNC(=O)c1ccc(Cl)nc1)C(=O)O)C(=O)O [P003, (S)-2-(3-((S)-1-Carboxy-5-(6-chloronicotinamido)pentyl)ureido)pentanedioic Acid] | 99% | – | –
14 | O=C(O)CC[C@H](NC(=O)N[C@@H](CCCCNC(=O)c1ccnc(F)c1)C(=O)O)C(=O)O [P004, (S)-2-(3-((S)-1-Carboxy-5-(2-fluoroisonicotinamido)pentyl)ureido)pentanedioic Acid] | 90% | 15.6 nM | –
15 | O=C(O)CC[C@H](NC(=O)N[C@@H](CCCCNC(=O)Cn1cc(CCCF)nn1)C(=O)O)C(=O)O [P005, (S)-2-(3-((S)-1-Carboxy-5-(2-(4-(3-fluoropropyl)-1H-1,2,3-triazol-1-yl)acetamido)pentyl)ureido)pentanedioic Acid] | 89% | 40.7 nM | –
16 | O=C(Nc1cc(C(=O)O)cc(C(=O)O)c1)N[C@@H](Cc1ccc(OCCF)cc1)C(=O)O [P006, (S)-5-(3-(1-Carboxy-2-(4-(2-fluoroethoxy)phenyl)ethyl)ureido)isophthalic Acid] | 0% | – | –
17 | O=C(Cn1cc(CCCF)nn1)NCCCC[C@H](NC(=O)Nc1cc(C(=O)O)cc(C(=O)O)c1)C(=O)O [P007, (S)-5-(3-(1-Carboxy-5-(2-(4-(3-fluoropropyl)-1H-1,2,3-triazol-1-yl)acetamido)pentyl)-ureido)isophthalic Acid] | 0% | – | –
18 | O=C(O)CC[C@H](NC(=O)N(CC(=O)O)[C@@H](CCCCNC(=O)OCc1ccccc1)C(=O)O)C(=O)O [P008, (9S,13S)-10-(Carboxymethyl)-3,1-dioxo-1-phenyl-2-oxa-4,10,12-triazapentadecane-9,13,15-tricarboxylic Acid] | 21% | – | –
19 | O=C(O)CCC(CP(=O)(O)O)C(=O)O (centres unmarked) [P009] | 100% | – | –
20 | O=C(O)CC[C@H](NC(=O)N(CCc1ccccc1)CC(=O)O)C(=O)O [P010, (S)-2-(3-(Carboxymethyl)-3-phenethylureido)pentanedioic Acid] | 0% | – | –
21 | O=C(O)CC[C@H](NC(=O)N(CC(=O)O)NC(=O)Cc1ccccc1)C(=O)O [P011, (S)-2-(1-(Carboxymethyl)-2-(2-phenylacetyl)hydrazinecarboxamido)pentanedioic Acid] | 0% | – | –
22 | O=C(O)CC[C@H](NC(=O)N(CC(=O)O)[C@@H](CCCCNC(=O)OCc1ccccc1)C(=O)NO)C(=O)O [P012, (S)-2-(3-((S)-6-(((Benzyloxy)carbonyl)amino)-1-(hydroxyamino)-1-oxohexan-2-yl)-3-(carboxymethyl)ureido)pentanedioic Acid] | 0% | – | –
23 | O=C(O)CN(CC(=O)O)NC(=O)NC(CSCc1ccccc1)C(=O)O (centres unmarked) [P013, 2,2′-(2-((2-(Benzylthio)-1-carboxyethyl)carbamoyl)hydrazine-1,1-diyl)diacetic Acid] | 16% | – | –
24 | O=C(O)CC[C@H](NC(=O)C[C@H](NC(=O)OCc1ccccc1)C(=O)O)C(=O)O [P015, (S)-2-((S)-3-(((Benzyloxy)carbonyl)amino)-3-carboxypropanamido)pentanedioic Acid] | 0% | – | –

From patent US10894807B2 (Siemens Medical Solutions USA, Inc., priority 2011, dated 2021)
